Entries after “also recorded” stand apart in the source; their conditions may differ.
What was measured:
[1] = tested on: J16 cells; test: Inositol phospholipid analysis in LPS-stimulated macrophages; assay type: cell-based, mouse
Description: Inositol phospholipid analysis. J16 cells, a macrophage cell line immortalized from C57B16 mice, were grown in 10% FCS in IMDM supplemented with 10 μM 2-mercaptoethanol, 150 μM monothioglycolate (MTG) and 1 mM glutamine. 5×10^6 cells were plated the night before in 10 cm tissue culture dishes. The next day, cells were washed three times with phosphate-free medium before being starved in phosphate free RPMI (MP Biomedicals, Irvine, Calif.) supplemented with 10% dialyzed FCS (Invitrogen, Burlington, Ont) and 1% RPMI for 2 hrs. Cells were then labeled with 1.0 mCi of ^32P-labeled orthophosphate (MP Biomedicals, Irvine, Calif.)/ml for 2 hrs at 37° C. Cells were pretreated for 30 mM with AQX-016A, LY294004 or vehicle prior to stimulation with LPS (50 ng/ml) for 15 min. Extraction of inositol phospholipids and HPLC analysis of deacylated lipids were performed as described previously (16). The amount of radioactivity contained in the elution peak for each lipid (two to five fractions) was summed to give the total counts for each lipid, and data were normalized to the first 60 fractions to adjust for fluctuations in total lipid labeling and recovery between samples. Data are expressed as the mean+/− the SEM of three independent replicates for each stimulation condition and the experiment was repeated twice.

[2] = tested on: SHIP1+/+ and SHIP1−/− BMmφs; test: LPS-stimulated PKB phosphorylation in BMmφs (immunoblot); assay type: cell-based, mouse; conditions: 30 min pretreatment, 10 ng/mL LPS 15 min
Description: LPS stimulation of BMmφs. For the analysis of LPS-stimulated TNFα production, 2 ×10^5 cells were plated the night before in 24 well plates in BMmφp medium. The next day, the medium was changed and AQX-016A or carrier was added to cells at the indicated concentrations for 30 min prior to the addition of 10 ng/mL LPS. Supernatants were collected after 1 hr for TNFα determination by ELISA (BD Biosciences, Mississauga, ON, Canada). Data are expressed as the mean +/− SEM of triplicates and experiments were repeated 3 times. For analysis of intracellular signaling, 2×10^6 cells were plated the night before in 6 cm tissue culture plates. The next day, the cells were cultured in BMmφp medium without M-CSF for 1 hr at 37° C. and then pretreated with AQX-016A or carrier for 30 min prior to the addition of 10 ng/mL LPS for 15 min. Cells were washed with 4° C. PBS and resuspended in lysis buffer (50 mM Hepes, 2 mM EDTA, 1mM NaVO4 , 100 mM NaF, 50 mM NaPPi and 1%NP4O) supplemented with COMPLETE™ Protease Inhibitor Cocktail (Roche, Montreal, Canada). Lysates were rocked at 4° C. for 30 min and clarified by centrifuging 20 min at 12000×g. Lysates were then made 1× in Laemmli's buffer, boiled 2 min and loaded onto 7.5% SDS polyacrylamide cells. […]

[3] = tested on: LNCaP cells; test: PKB phosphorylation in LNCaP cells; assay type: cell-based; conditions: 30 min treatment; cells do not express SHIP1
Description: The non-hemopoietic, prostate cancer LnCAP cell line was treated with AQX-016A or LY294002 for 30 min and cell lysates analyzed for phospho-PKB-Thr 308 or phospho-PKB 473 as described in the Examples. AQX-016A (Molecular Weight 328.24) concentration is indicated in μM.

Cc1cc(O)c(O)c2c1[C@]1(C)CC[C@H]3C(C)(C)CCC[C@]3(C)[C@H]1C2 [AQX-016A]
PIP3 levels after LPS stimulation ([1]; 30 min pretreatment with 5 mg/mL AQX-016A or 25 μM LY294002, LPS 15 min): abolished this increase
PI-3,4-P2 levels after LPS stimulation ([1]; 30 min pretreatment with AQX-016A or 25 μM LY294002, LPS 15 min): corresponding increase
LPS-stimulated PKB phosphorylation, SHIP1+/+ vs SHIP1−/− BMmφs [2]: preferentially inhibited, in a dose dependent manner, LPS-stimulated PKB phosphorylation in SHIP1+/+ but not in SHIP1−/−
PKB phosphorylation in LNCaP cells [3]: had no effect; also recorded: but not AQX-016A inhibits PKB phosphorylation
